We go through 2 compounds from patent publication US4424226A, “Pyridobenzodiazepinones, pharmaceutical compositions thereof and method of use thereof” (Dr. Karl Thomae GmbH, priority 1982, dated 1984).

By IC50 is commonly meant the point on the concentration scale where inhibition reaches its midpoint. In general, ED50 refers to the midpoint of the dose-response relation. Low readings indicate an effect at a small dose, high ones a need for a large dose.

Data set [1] addresses muscarinic receptors (cerebral cortex). Description: Binding to muscarinic receptors, cerebral cortex (inhibition of specific 3H-NMS binding). Details: species or system rat (Sprague-Dawley). The conditions noted are these: 0.3 nM 3H-NMS, 45 min, 30° C., pH 7.4, read-out: Receptor Binding Tests IC50, Cortex. As to the method: (§1) 3. Studies of binding to muscarinic receptors: Determination of the IC50 value
(§2) The organ donors were male Sprague-Dawley rats with a body weight of from about 180 to 220 gm each. After the heart, stomach, and cerebral cortex had been removed, the remainder of the operation was carried out in ice-cold Hepes-HCl buffer (pH 7.4; 100 m molar NaCl, 10 m molar MgCl2). The smooth muscle of the fundus of the stomach was separated from the mucous membrane of the stomach and subjected to preliminary homogenization. The whole heart was cut up with scissors. All the organs were then homogenized in a Potter apparatus.
(§3) For the bonding test, the homogenized organs were diluted as follows:
(§4) The homogenized organ preparations were incubated at a specific concentration of the radioligand and with a series of concentrations of the non-radioactive test substances in an Eppendorf centrifuge tube at 30° C. The duration of incubation was 45 minutes. The substance 0.3 n molar ^3 H-N-methylscopolamine (^3 H-NMS) was used as the radioligand. After incubation had been brought to an end by centrifuging at 14,000 g, the radioactivity in the pellet was determined. […] The proportion of non-specific bonding was defined as the radioactivity which was bonded in the presence of 1μ molar quinuclidinylbenzylate. […] The IC50 values of the non-labelled test substances were determined graphically. […]

Data set [2] addresses T1, muscarinic receptors (smooth muscle of the fundus of the stomach) (Rattus norvegicus).
T1 construct: The smooth muscle of the fundus of the stomach was separated from the mucous membrane of the stomach; from tissue; host or cells: smooth muscle of the stomach fundus of male Sprague-Dawley rats, homogenate
Nature of the data set: Binding to muscarinic receptors, smooth muscle of the fundus of the stomach (inhibition of specific 3H-NMS binding). Details: species or system rat (Sprague-Dawley). The conditions noted are these: 0.3 nM 3H-NMS, 45 min, 30° C., pH 7.4, read-out: Receptor Binding Tests IC50, Smooth Muscle Fundus of Stomach. As to the method:
as §1, §2, §3
Smooth muscle of the fundus
as §4

In data set [3] the test system is muscarinic receptors. Description: Oxotremorine test: inhibition of oxotremorine-induced secretion of saliva. It counts as in vivo, rat (female albino, Crl:COBS-CD (SD) BR). The conditions noted are these: i.v., 15 min before oxotremorine 0.083 mg/kg i.v.; rats. The procedure: (§5) Oxotremorine, a specific agonist for muscarinic receptors produces lesions in the mucous membrane of the stomach in rats and increases their secretion of saliva. This test method was chosen so that any selective activity of an antimuscarinic substance on the stomach could be identified.
(§6) Ten female albino rats (of the Crl:COBS-CD (SD) BR strain) with a body weight of from 120 to 150 gm apiece were used in each treatment group and were kept without food for 24 hours before the start of the test but given free access to drinking water.
(§7) To determine, in preliminary tests, the muscarinic effect of oxotremorine on each of the symptoms studied, a dosage/activity curve was drawn up with at least three dosages for each symptom.
(§8) When the antimuscarinic substances were tested, the dosage of oxotremorine which triggered the symptom in question in 90 to 100% of the animals in the preliminary tests was used.
Secretion of saliva 0.083 mg/kg i.v.
Each antimuscarinic substance was administered intravenously in uniformly graduated doses 15 minutes before the oxotremorine was administered. Control groups were given corresponding quantities of the solvent and suspension agent instead of the test substance. […]
(§9) The ED50 values were determined using the method described by Litchfield and Wilcoxon (J. Pharmacol. Exp. Ther. 96, 99, 1949).

Data set [4] deals with T2, muscarinic receptors (heart) (Rattus norvegicus, UniProt P10980).
T2 construct: The whole heart was cut up with scissors; All the organs were then homogenized in a Potter apparatus; from tissue; host or cells: whole heart of male Sprague-Dawley rats, homogenate
T2 sequence (P10980 1-466): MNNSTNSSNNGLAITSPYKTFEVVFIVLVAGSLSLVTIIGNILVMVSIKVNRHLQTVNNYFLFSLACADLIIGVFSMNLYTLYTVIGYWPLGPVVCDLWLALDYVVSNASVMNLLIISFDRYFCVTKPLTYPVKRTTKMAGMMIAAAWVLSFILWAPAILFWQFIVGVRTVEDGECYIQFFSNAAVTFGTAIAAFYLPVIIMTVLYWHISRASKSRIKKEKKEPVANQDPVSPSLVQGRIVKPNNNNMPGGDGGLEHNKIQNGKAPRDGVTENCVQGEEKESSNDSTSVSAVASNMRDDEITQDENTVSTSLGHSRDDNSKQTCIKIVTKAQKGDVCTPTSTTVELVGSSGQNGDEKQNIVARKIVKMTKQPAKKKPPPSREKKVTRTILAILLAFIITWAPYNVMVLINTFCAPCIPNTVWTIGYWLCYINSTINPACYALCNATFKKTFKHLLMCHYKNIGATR
Nature of the data set: Binding to muscarinic receptors, whole heart (inhibition of specific 3H-NMS binding). Particulars: 0.3 nM 3H-NMS, 45 min, 30° C., pH 7.4, read-out: Receptor Binding Tests IC50, Heart. Details: species or system rat (Sprague-Dawley). As to the method:
as §1, §2, §3, §4

The subject of data set [5] is muscarinic receptors. Description: Oxotremorine test: protection against oxotremorine-induced lesions in the mucous membrane of the stomach. It counts as in vivo, rat (female albino, Crl:COBS-CD (SD) BR). The conditions noted are these: i.v.; rats; oxotremorine 0.62 mg/kg i.v. after neostigmine 1 mg/kg oral; % animals without lesions. As to the method:
as §5, §6, §7, §8
Each antimuscarinic substance was administered intravenously in uniformly graduated doses 15 minutes before the oxotremorine was administered. Control groups were given corresponding quantities of the solvent and suspension agent instead of the test substance. Immediately after the oxotremorine was administered, the animals were placed in a glass case for 15 minutes and observed.
as §9
The effects on lesions of the mucous membrane of the stomach were evaluated as follows:
The lesions of the gastric mucous membrane were produced by intravenous injection of 0.62 mg/kg of oxotremorine 30 minutes after the oral administration of 1 mg/kg of neostigmine (a cholinesterase inhibitor). […] The protective effect of the test substances was expressed as the percentage inhibition (percentage of animals without lesions). The ED50 and ED70 values were determined using the method of LITCHFIELD and WILCOXON (see above).

A short description of data set [6]: Testing for mydriasis (effect on pupil size). The conditions noted are these: rat, in vivo, iv; rats; pupil observed 10 minutes. As to the method:
The effect of the test substances on the pupil size in rats was investigated as follows:
The substances were administered intravenously to groups of 10 animals in at least three uniformly graduated doses. The pupil size was then observed for 10 minutes to see if there were any changes (mydriasis or miosis). […] The percentage of test animals in which mydriasis occurred was determined. The ED50 values were again determined during the method of LITCHFIELD and WILCOXON (see above).

Each structure is given as a SMILES string.

As to `CN1[C@@H]2CC[C@H]1C[C@@H](CC(=O)N1c3ccccc3C(=O)Nc3cccnc31)C2` [B, endo-5,11-dihydro-11-[(8-methyl-8-azabicyclo[3.2.1]oct-3-yl)acetyl]-6H-pyrido[2,3-b][1,4]benzodiazepin-6-one], the IC50 worked out at 50 nM in data set [1], 700 nM in data set [2] and 150 nM in data set [4]. The “Oxotremorine Test, Inhibition of Salivation ED50” value in data set [3] was 0.3 mg/kg. Besides, in data set [5], the “Oxotremorine Test, Anti-ulcerative Effect ED70” value stood at 0.037 mg/kg. In data set [6], it took a dose of 0.22 mg/kg to reach the 50% effect level (ED50 at 10 min).
Turning to `CN1CC=C(CC(=O)N2c3ccccc3C(=O)Nc3cccnc32)CC1` [A, 5,11-dihydro-11-[(1-methyl-1,2,5,6-tetrahydro-4-pyridinyl)acetyl]-6H-pyrido[2,3-b][1,4]benzodiazepin-6-one], the half-inhibitory concentration (IC50) came out at 50 nM in data set [1], 200 nM in data set [2] and 170 nM in data set [4]. Besides, the “Oxotremorine Test, Inhibition of Salivation ED50” value in data set [3] is 0.028 mg/kg. In data set [5], the “Oxotremorine Test, Anti-ulcerative Effect ED50” value worked out at 0.0011 mg/kg. Moreover, the “Oxotremorine Test, Anti-ulcerative Effect ED70” value in data set [5] was 0.002 mg/kg. Further, in data set [6], the median effective dose (ED50) at 10 min turned out to be 0.074 mg/kg.
